Test results published in US20140288188A1, “Process for Stabilizing Bacterial Content of Aqueous Ground Natural Calcium Carbonate and/or Precipitated Calcium Carbonate and/or Dolomite and/or Surface-Reacted Calcium Carbonate-Comprising Mineral Preparations” (priority 2011, published 2014).
Like-named read-outs stand apart in the source and are kept apart here.

Columns and labels:
[1] = tested on: rGDA/IT bacteria culture (GDA/CIT/MIT-resistant); type: cell-based, Pseudomonas; details: no BM1, GNCCS, one inoculation
Method: (§1) All quoted bacterial counts (Total Viable Count (TVC) values are in cfu/ml) in the Tables herebelow are determined after 48 hours following plate-out and in accordance with the counting method described in “Bestimmung von aeroben mesophilen Keimen”, Schweizerisches Lebensmittelbuch, chapter 56, section 7.01, edition of 1985, revised version of 1988.
BM1 and ethylene diamine (hereafter “EDA”) were introduced into 50 g samples of each of the slurries indicated in Table 1 in the listed amounts (quoted in ppm based on the weight of the aqueous phase in the slurry). The samples were then stored at 30° C. for 72 hours. References were prepared according to the same protocol but in absence of EDA and in absence of EDA and BM1.
The slurry samples were then inoculated with 1 ml of a mixture of rGDA/IT bacteria culture. Each of the samples was incubated at 30° C. for 24 hours. Thereafter, a 1:10 dilution in phosphate buffered saline (PBS) was plated on plate count agar (PCA). These plates were incubated at 30° C. and analysed after 48 hours.
The biocide-resistant calcium carbonate slurry culture rGDA/IT is GDA/CIT/MIT-resistant and was obtained from product storage tanks located at white mineral dispersion (WMD) manufacturing plants that used the related biocide to preserve the products. […]
BM1 and a diamine selected from 1,3-bis(aminomethyl)cyclohexane (hereinafter “AMC”), 1,3-bis(aminomethyl)benzene (hereinafter “AMB”), 1,7-diaminoheptane (hereinafter “DAH”), and 1,8-diamionoocatane (hereinafter “DAO”) were introduced into 50 g samples of each of the slurries indicated in Table 4 in the listed amounts (quoted in ppm based on the weight of the aqueous phase in the slurry). The samples were then stored at 30° C. for 72 hours. References were prepared according to the same protocol but in absence of the respective diamine used and in the absence of the respective diamine and BM1. […]

[2] = tested on: rOPP bacteria culture (OPP-resistant); test: Biocidal activity in ground natural calcium carbonate slurry (GNCCS), Total Viable Count after inoculation with rOPP culture; type: cell-based, Pseudomonas putida and Pseudomonas stutzeri; details: one inoculation
Method: as §1
OPP, in the form of an aqueous solution having a concentration of 45%, and one of AMC, AMB, DAH, and DAO were introduced into 50 g samples of each of the slurries indicated in Table 6 in the listed amounts (quoted in ppm active content based on the weight of the aqueous phase in the slurry). References were prepared according to the same protocol but in absence of any one of AMC, AMB, DAH, and DAO. A reference was prepared according to the same protocol but in absence of AMC, AMB, DAH, and DAO and in absence of any biocide.
The slurry samples were then inoculated with 1 ml of a mixture of Pseudomonas species containing predominantly Pseudomonas putida and Pseudomonas stutzeri that are resistant to OPP. Each of the samples was incubated at 30° C. for 72 hours. Thereafter, a 1:10 dilution in phosphate buffered saline (PBS) was plated on plate count agar (PCA). These plates were incubated at 30° C. and analysed after […]. […]

Compound	TVC ([1]; diamine 750 ppm alone)	also measured
NCCN [EDA, ethylene diamine]		TVC ([1]; EDA 1050 ppm on aqueous phase alone): 1 × 10^6 cfu/ml
NCCCCCCCCN [DAO, 1,8-diamionoocatane]	1 × 10^6 cfu/ml	TVC ([2]; diamine 750 ppm alone, no OPP): 1 × 10^6 cfu/ml
NCCCCCCCN [DAH, 1,7-diaminoheptane]	1 × 10^6 cfu/ml	
NCc1cccc(CN)c1 [AMB, 1,3-bis(aminomethyl)benzene]	1 × 10^6 cfu/ml	
NCC1CCCC(CN)C1 (stereo not shown) [AMC, 1,3-bis(aminomethyl)cyclohexane]	1 × 10^6 cfu/ml	
Oc1ccccc1-c1ccccc1 [OPP, orthophenylphenol, reference compound]		TVC ([2]; OPP 250 ppm alone): 1 × 10^6 cfu/ml
